According to ChEMBL document CHEMBL5303573, “Mapping human microbiome drug metabolism by gut bacteria and their genes” (Nature, 2019):

What was measured:
[1] = The drug is tested on Eubacterium hallii strain: DSM3353 for biotransformation. The drug concentrations were measured before and after a 12-h incubation by liquid-chromatography-coupled mass spectrometry (LC–MS); conditions: anaerobutyricum hallii, 2 µM
[2] = bacteroides fragilis, 12 h, 2 µM
[3] = limosilactobacillus reuteri cf48-3a, 12 h, 2 µM
[4] = The drug is tested on Collinsella aerofaciens strain: ATCC25986 for biotransformation. The drug concentrations were measured before and after a 12-h incubation by liquid-chromatography-coupled mass spectrometry (LC–MS); conditions: 2 µM
[5] = parabacteroides distasonis, 12 h, 2 µM
[6] = The drug is tested on Ruminococcus gnavus strain: ATCC29149 for biotransformation. The drug concentrations were measured before and after a 12-h incubation by liquid-chromatography-coupled mass spectrometry (LC–MS); conditions: mediterraneibacter gnavus, 2 µM
[7] = segatella copri, 12 h, 2 µM
[8] = The drug is tested on Parabacteroides merdae strain: ATCC43184 for biotransformation. The drug concentrations were measured before and after a 12-h incubation by liquid-chromatography-coupled mass spectrometry (LC–MS); conditions: 2 µM
[9] = The drug is tested on Odoribacter splanchnicus strain: fecal isolate for biotransformation. The drug concentrations were measured before and after a 12-h incubation by liquid-chromatography-coupled mass spectrometry (LC–MS); conditions: 2 µM
[10] = The drug is tested on Bacteroides fragilis strain: HMW615 for biotransformation. The drug concentrations were measured before and after a 12-h incubation by liquid-chromatography-coupled mass spectrometry (LC–MS); conditions: 2 µM
[11] = The drug is tested on Anaerococcus hydrogenalis strain: DSM7454 for biotransformation. The drug concentrations were measured before and after a 12-h incubation by liquid-chromatography-coupled mass spectrometry (LC–MS); conditions: 2 µM
[12] = The drug is tested on Providencia stuartii strain: ATCC25827 for biotransformation. The drug concentrations were measured before and after a 12-h incubation by liquid-chromatography-coupled mass spectrometry (LC–MS); conditions: 2 µM
[13] = The drug is tested on Enterococcus faecalis strain: V583 for biotransformation. The drug concentrations were measured before and after a 12-h incubation by liquid-chromatography-coupled mass spectrometry (LC–MS); conditions: 2 µM
[14] = The drug is tested on Coprococcus comes strain: ATCC27758 for biotransformation. The drug concentrations were measured before and after a 12-h incubation by liquid-chromatography-coupled mass spectrometry (LC–MS); type: ADME; design: dose 2 uM, timepoint 0 vs 12 hours; conditions: 2 µM
[15] = The drug is tested on Clostridium sporogenes strain: ATCC15579 for biotransformation. The drug concentrations were measured before and after a 12-h incubation by liquid-chromatography-coupled mass spectrometry (LC–MS); conditions: 2 µM
[16] = enterocloster bolteae, 12 h, 2 µM
Description: The drug is tested on Clostridium bolteae strain: ATCCBAA-613 for biotransformation. The drug concentrations were measured before and after a 12-h incubation by liquid-chromatography-coupled mass spectrometry (LC–MS)

[17] = The drug is tested on Clostridium scindens strain: ATCC35704 for biotransformation. The drug concentrations were measured before and after a 12-h incubation by liquid-chromatography-coupled mass spectrometry (LC–MS); conditions: 2 µM
[18] = The drug is tested on Clostridium sp. strain: fecal isolate for biotransformation. The drug concentrations were measured before and after a 12-h incubation by liquid-chromatography-coupled mass spectrometry (LC–MS); conditions: 2 µM

SMILES	Bacterial Biotransformation [1]	Bacterial Biotransformation [2]	Bacterial Biotransformation [3]	Bacterial Biotransformation [4]	Bacterial Biotransformation [5]	Bacterial Biotransformation [6]	Bacterial Biotransformation [7]	Bacterial Biotransformation [8]	Bacterial Biotransformation [9]	Bacterial Biotransformation [10]	Bacterial Biotransformation [11]	Bacterial Biotransformation [12]	Bacterial Biotransformation [13]	Bacterial Biotransformation [14]	Bacterial Biotransformation [15]	Bacterial Biotransformation [16]	Bacterial Biotransformation [17]	Bacterial Biotransformation [18]
COc1ccc(CCN(C)CCCC(C#N)(c2ccc(OC)c(OC)c2)C(C)C)cc1OC (stereo unspecified)	Compound metabolized	Compound NOT metabolized	Compound NOT metabolized	Compound NOT metabolized	Compound metabolized	Compound NOT metabolized	Compound metabolized	Compound NOT metabolized	Compound metabolized	Compound NOT metabolized	Compound NOT metabolized	Compound NOT metabolized	Compound NOT metabolized	Compound NOT metabolized	–	–	–	–
CC(C)(C)N.CCC[C@H](N[C@@H](C)C(=O)N1[C@H](C(=O)O)C[C@@H]2CCCC[C@@H]21)C(=O)OCC [PERINDOPRIL ERBUMINE]	Compound NOT metabolized	Compound NOT metabolized	Compound NOT metabolized	Compound NOT metabolized	Compound NOT metabolized	Compound NOT metabolized	–	–	Compound NOT metabolized	–	Compound NOT metabolized	Compound NOT metabolized	Compound NOT metabolized	Compound NOT metabolized	Compound NOT metabolized	Compound NOT metabolized	Compound NOT metabolized	Compound NOT metabolized
CCOC(=O)C1=C[C@]2(CC)CCCN3CCc4c(n1c1ccccc41)[C@@H]32 [VINPOCETINE]	Compound NOT metabolized	Compound NOT metabolized	Compound NOT metabolized	Compound NOT metabolized	–	Compound NOT metabolized	Compound NOT metabolized	Compound NOT metabolized	Compound NOT metabolized	Compound NOT metabolized	Compound NOT metabolized	Compound NOT metabolized	Compound NOT metabolized	Compound NOT metabolized	Compound NOT metabolized	Compound NOT metabolized	Compound NOT metabolized	Compound metabolized
Br.CN1CCC[C@@H]1Cc1c[nH]c2ccc(CCS(=O)(=O)c3ccccc3)cc12 [ELETRIPTAN HYDROBROMIDE]	Compound NOT metabolized	Compound NOT metabolized	Compound NOT metabolized	Compound NOT metabolized	Compound NOT metabolized	Compound NOT metabolized	Compound NOT metabolized	Compound NOT metabolized	Compound NOT metabolized	–	Compound NOT metabolized	Compound NOT metabolized	Compound NOT metabolized	Compound NOT metabolized	Compound NOT metabolized	Compound NOT metabolized	Compound NOT metabolized	Compound NOT metabolized
CN(CCOc1ccc(CC2SC(=O)NC2=O)cc1)c1ccccn1.O=C(O)/C=C\C(=O)O (stereo unspecified) [ROSIGLITAZONE MALEATE]	Compound NOT metabolized	Compound NOT metabolized	Compound NOT metabolized	Compound NOT metabolized	Compound NOT metabolized	Compound NOT metabolized	Compound NOT metabolized	Compound NOT metabolized	Compound NOT metabolized	–	Compound NOT metabolized	Compound NOT metabolized	Compound NOT metabolized	Compound NOT metabolized	Compound NOT metabolized	Compound NOT metabolized	Compound NOT metabolized	Compound NOT metabolized
CCN(C(C)=O)c1cccc(-c2ccnc3c(C#N)cnn23)c1 [ZALEPLON]	Compound NOT metabolized	Compound metabolized	–	Compound NOT metabolized	Compound NOT metabolized	Compound NOT metabolized	Compound NOT metabolized	–	Compound NOT metabolized	Compound metabolized	Compound NOT metabolized	Compound NOT metabolized	Compound NOT metabolized	Compound NOT metabolized	Compound NOT metabolized	–	Compound NOT metabolized	Compound metabolized
O=C1N=C([O-])NC1(c1ccccc1)c1ccccc1.[Na+] [PHENYTOIN SODIUM]	Compound NOT metabolized	Compound metabolized	Compound NOT metabolized	Compound metabolized	Compound metabolized	Compound NOT metabolized	Compound NOT metabolized	Compound metabolized	Compound metabolized	Compound NOT metabolized	Compound NOT metabolized	Compound NOT metabolized	Compound NOT metabolized	Compound NOT metabolized	Compound metabolized	Compound NOT metabolized	Compound NOT metabolized	–
O=C1CC2(CCCC2)CC(=O)N1CCCCN1CCN(c2ncccn2)CC1 [BUSPIRONE]	Compound NOT metabolized	Compound NOT metabolized	Compound NOT metabolized	Compound NOT metabolized	Compound NOT metabolized	Compound NOT metabolized	Compound NOT metabolized	Compound NOT metabolized	–	Compound NOT metabolized	Compound NOT metabolized	Compound NOT metabolized	Compound NOT metabolized	Compound NOT metabolized	Compound NOT metabolized	Compound NOT metabolized	Compound NOT metabolized	Compound NOT metabolized
COC1=CC(=O)C[C@@H](C)[C@]12Oc1c(Cl)c(OC)cc(OC)c1C2=O [GRISEOFULVIN]	Compound NOT metabolized	Compound metabolized	Compound NOT metabolized	Compound NOT metabolized	Compound metabolized	Compound metabolized	Compound metabolized	Compound metabolized	–	Compound metabolized	Compound NOT metabolized	–	Compound NOT metabolized	Compound NOT metabolized	–	Compound NOT metabolized	Compound NOT metabolized	Compound metabolized
CCOc1ccc(NC(C)=O)cc1 [PHENACETIN]	Compound NOT metabolized	Compound NOT metabolized	Compound NOT metabolized	Compound NOT metabolized	Compound NOT metabolized	Compound NOT metabolized	Compound NOT metabolized	Compound NOT metabolized	Compound NOT metabolized	Compound NOT metabolized	Compound NOT metabolized	–	Compound NOT metabolized	Compound NOT metabolized	Compound NOT metabolized	Compound NOT metabolized	Compound NOT metabolized	Compound NOT metabolized
